What all share (type): cell-based
In test [1] the target is T1, human SPPL2a (Homo sapiens, UniProt Q8TCT8).
T1 sequence (Q8TCT8 26-520): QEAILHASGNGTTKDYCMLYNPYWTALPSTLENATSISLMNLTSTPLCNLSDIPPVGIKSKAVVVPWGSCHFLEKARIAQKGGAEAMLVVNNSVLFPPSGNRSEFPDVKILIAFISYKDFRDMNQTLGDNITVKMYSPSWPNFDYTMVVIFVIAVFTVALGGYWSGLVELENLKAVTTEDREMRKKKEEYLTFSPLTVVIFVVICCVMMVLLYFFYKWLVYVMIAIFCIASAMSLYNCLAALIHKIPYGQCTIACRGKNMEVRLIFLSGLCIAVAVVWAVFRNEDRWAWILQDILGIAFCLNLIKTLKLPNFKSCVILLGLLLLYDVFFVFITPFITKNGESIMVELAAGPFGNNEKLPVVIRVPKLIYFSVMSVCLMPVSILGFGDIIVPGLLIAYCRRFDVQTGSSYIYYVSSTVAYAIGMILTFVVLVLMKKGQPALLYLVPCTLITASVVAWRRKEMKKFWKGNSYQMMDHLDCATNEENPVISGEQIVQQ
Briefly: Sppl2a RGA (reporter gene assay) in HEK293 cells. More on the design: expressed in transfected cells; host or cells: HEK293 (transient). As to conditions: NT-TNF-VP16-Gal4 substrate, Gal4-luciferase reporter, 24 h. In a few lines: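 Cleavage of a membrane-bound TNF N-terminal–VP16-Gal4 substrate drives Gal4-luciferase expression in transiently transfected HEK293 cells also expressing human SPPL2a. Compounds incubated 24 h, 37 °C, 5% CO2; luminescence read, normalized and plotted against concentration for IC50.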

The target in test [2] is T1, human SPPL2a. Briefly: Sppl2a TL (translocation) imaging assay in U-2 OS cells. More on the design: expressed in transfected cells. The note with it: U-2 OS cells expressing human SPPL2a and EGFP-TNFα(aa1-76) NTF substrate; 24 h. In a few lines:
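U-2 OS cells stably expressing human SPPL2a plus doxycycline-induced EGFP-TNFα(aa1-76) NTF, treated 24 h at 37 °C with inhibitor (100 μM–1 nM, 11 points, 0.9% DMSO, 5 μg/mL doxycycline). Imaging of nuclear-minus-cytoplasmic EGFP intensity; % inhibition versus 0.5 μM LY-411,575 and DMSO, IC50 by nonlinear regression; CC50 from cell count.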

The target of test [3] is γ-secretase (Homo sapiens, UniProt P49768). Nature of the test: γ-secretase RGA (reporter gene assay, Notch1 substrate) in HEK293 cells. As to conditions: Notch1-VP16-Gal4 substrate, Gal4-luciferase reporter, 24 h, read-out: g-secretase RGA IC50. For orientation: In a reporter assay the amount or activity of a reporter protein is the signal.
Excerpt: The assay is based on the coupling of the proteolytic degradation of a membrane bound synthetic substrate, a VP16-Gal4 fusion protein with Notch1, which migrates to the nucleus upon cleavage, where it activates Gal4 driven expression of luciferase. […] The luciferase dependent-luminescence is plotted against the concentrations of compound to generate a dose response curve, which allows the calculation of the IC50 value. DNA vectors encoding human Notch1-VP16-Gal4 and a Gal4-luciferase reporter were transiently transfected in HEK293 cells, which express γ-secretase components endogenously. In a typical experiment 10 μg plasmid encoding the reporter Gal4-luciferase and 20 μg plasmid encoding the substrate Notch1-VP16-Gal4 were mixed together. The DNA mixture was combined with 107 μl FuGENE® (Promega), 735 μl Opti-MEM® (Life Technologies) and incubated for 5 minutes at RT. To this mixture 20 mL of concentrated HEK293 cells were added and thoroughly mixed. The cell suspension was distributed to a white solid 384 well plate. Within hours, 50 nl of compound in DMSO was stamped into the wells via pintool. […] After incubation at room temperature for 5 min, the plate was transferred to a luminometer and the luminescence was measured. The IC50 was determined by plotting compound concentration vs. normalized luminescence values.
Test [4] has as its target T2, Sppl2a CD74 (Mus musculus, UniProt Q9JJF9).
T2 construct: Mouse whole blood Balb/c mice (sodium citrate) was ordered by Bioreclamation LLC; tissue Bioreclamation LLC
T2 sequence (Q9JJF9 26-523): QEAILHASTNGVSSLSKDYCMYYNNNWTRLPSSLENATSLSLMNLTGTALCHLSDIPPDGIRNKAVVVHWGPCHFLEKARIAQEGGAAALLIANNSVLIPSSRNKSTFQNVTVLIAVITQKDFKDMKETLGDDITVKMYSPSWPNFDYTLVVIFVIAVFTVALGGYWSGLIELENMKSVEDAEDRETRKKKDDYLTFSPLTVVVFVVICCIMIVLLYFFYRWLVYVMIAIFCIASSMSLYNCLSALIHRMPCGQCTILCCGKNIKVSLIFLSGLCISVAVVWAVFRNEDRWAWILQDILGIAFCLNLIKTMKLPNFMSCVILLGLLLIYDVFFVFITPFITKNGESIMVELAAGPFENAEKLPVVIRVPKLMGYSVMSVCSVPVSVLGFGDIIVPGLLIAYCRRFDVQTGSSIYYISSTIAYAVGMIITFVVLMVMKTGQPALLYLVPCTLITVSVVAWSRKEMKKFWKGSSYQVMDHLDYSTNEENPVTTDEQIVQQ
Nature of the test: CD74/p8 mouse whole blood assay, flow cytometry format. The note with it: Balb/c mouse whole blood, 5 h, CD74 signal on gated live B cells. In a few lines: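 Balb/c mouse whole blood (citrate) incubated 5 h at 37 °C with compounds, 11-point dilution from 30 μM top. After RBC lysis, live B220+ B cells stained intracellularly for CD74 (FITC) and analysed by flow cytometry. IC50 fitted from CD74 median fluorescence intensity.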
A general note: Flow cytometry measures light scatter and fluorescence of single cells or particles in a stream.

In general, IC50 refers to the concentration at which inhibition is half-maximal.

Some results are limits rather than exact numbers.

For “3,4-Dimethyl-N- ((R)-2-(((S)-11- oxo-2,3,10,11- tetrahydro- 1H,5H- benzo[d]pyrazolo [1,2- a][1,2]diazepin- 10- yl)carbamoyl)pen- tyl)isoxazole-5- carboxamide [Example 33]”, the results for the half-maximal inhibitory concentration (IC50) in test [1], in test [2] and in test [3] were 7 nM, 37 nM and above 10000 nM, respectively.

Consider `CC(C)C(=O)Nc1cc(NC(=O)C[C@H](C(=O)N[C@@H]2C(=O)N3CC4(CC4)CN3C(=O)c3ccccc32)C2CC2)n(C)n1` [Example 93, (S)-2-Cyclopropyl-N^1-((S)-5,11-dioxo-10,11-dihydro-1H,3H,5H-spiro[benzo[d]pyrazolo[1,2-a][1,2]diazepine-2,1′-cyclopropan]-10-yl)-N^4-(3-isobutyramido-1-methyl-1H-pyrazol-5-yl)succinamide], for which the 50% inhibitory concentration (IC50) in test [1] is 168 nM; in test [2] it was 12 nM; in test [4], 1130 nM.

Consider `C[C@H](CC(=O)Nc1cc(C(=O)NCC(F)F)nn1C)C(=O)N[C@@H]1C(=O)N2CCCN2Cc2ccccc21` [Example 65, (R)-N^4-(3-((2,2-difluoroethyl)car-bamoyl)-1-methyl-1H-pyrazol-5-yl)-2-methyl-N^1-((S)-11-oxo-2,3,10,11-tetrahydro-1H,5H-benzo[d]pyrazolo [1,2-a][1,2]diazepin-10-yl)succinamide], for which the half-maximal inhibitory concentration (IC50) was 14 nM in test [1], 1 nM in test [2] and 519 nM in test [4].

With `C[C@H](CC(=O)Nc1cc(C(=O)NCC(F)(F)F)nn1C)C(=O)N[C@@H]1C(=O)N2CCCN2Cc2ccccc21` [Example 68, (R)-2-methyl-N^4-(1-methyl-3-((2,2,2-trifluoroethyl)car-bamoyl)-1H-pyrazol-5-yl)-N^1-((S)-11-oxo-2,3,10,11-tetrahydro-1H,5H-benzo[d]pyrazolo [1,2-a][1,2]diazepin-10-yl)succinamide], the figures for the IC50 in test [1], in test [2] and in test [4] were 34 nM, 3 nM and 329 nM, respectively.

For the compound `Cn1nc(-c2cc(C3CC3)no2)cc1NC(=O)C[C@H](C(=O)N[C@@H]1C(=O)N2CC3(CC3)CN2C(=O)c2ccccc21)C1CC1` [Example 103, (S)-2-Cyclopropyl-N^4-(3-(3-cyclopropylisoxa-zol-5-yl)-1-methyl-1H-pyrazol-5-yl)-N^1-((S)-5,11-dioxo-10,11-dihydro-1H,3H,5H-spiro[benzo[d]pyr-azolo[1,2-a][1,2]diazepine-2,1″- cyclopropan]-10-yl)succinamide], the IC50 worked out at 13 nM in test [1], 17 nM in test [2] and 1250 nM in test [4].

As to `CC(C)C(=O)Nc1cc(NC(=O)C[C@H](C(=O)N[C@@H]2C(=O)N3CC4(CC4)CN3C(=O)c3ccccc32)C2CCC2)n(C)n1` [Example 82, (S)-2-Cyclobutyl-N^1-((S)-5,11-dioxo-10,11-dihydro-1H,3H,5H-spiro[benzo[d]pyrazolo[1,2-a][1,2]diazepine-2,1′-cyclopropan]-10-yl)-N^4-(3-isobutyramido-1-methyl-1H-pyrazol-5-yl)succinamide], the IC50 in test [1] was determined as 36 nM; in test [2], 9 nM; in test [4] it was 1870 nM.

The values above are taken from patent US20230365571A1, “COMPOUNDS AND COMPOSITIONS AS Sppl2a INHIBITORS” (Novartis AG, priority 2020, published 2023).
